Like-named read-outs stand apart in the source and are kept apart here.

Data set [1] deals with cochlear hair cells (mouse cochlear explants). In kind it is cell-based. The conditions noted are these: for number of viable hair cells: untreated explants 17-52. An excerpt: In some embodiments, an in vitro method is employed. An illustrative assay uses an aminoglycoside-induced model (using gentamycin) of hair cell death using cochlear explants. In brief, the cochleae are collected from test animal, e.g., mice. All cochleae are combined in the same dissection maintenance bath and plated as an individual sample. The following morning, high magnification digital images of cochlea are taken and cochlear explant is assigned to groups. A desired number of explants will be used for further gentamicin treatment. Test article and positive control article are dosed ˜6 hours either prior, together with, or following to gentamicin for a duration of up to 3 days. If the culture medium is replaced (e.g. when gentamicin is added/removed), the test or positive control article will be re-administered. The cochlea are cultured and observed for health and survival. At the end of the culture cochlear explants are bathed with buffer and processed for cochleogram. Following the fixation, all the cochlear explants undergo immunofluorescent staining with anti-Myosin VIIa and Phalloidin in order to specifically label the hair cells. The explants are then mounted on microscope slides, and imaged utilizing a confocal microscope using the same laser power settings for all samples. Cochlear fragment images are then divided into 20% fragments from the apex to the base. MyosinVIIa light intensity is quantified in each fragment and compared among groups. Image analysis is performed using an imaging platform, e.g., a Fiji image analysis platform. Explants are scanned using confocal microscope with filters for 488 nm and 594 nm wave lengths. Scanning is performed using the same laser power through the entire imaging for proper light intensity calculation. For analysis, cochlea can be divided in fragment of X %. Intensity of light coming from MyoVii is quantified in each fragment and compared among groups.
Mouse cochlear explants were treated with “ORI-069” a small molecule inhibitor of DLK and LZK. ORI-069 is 2-Amino-N-[(2S)-butan-2-yl]-7-(1-{2-methyl-1-[6-(trifluoromethyl)pyridin-3-yl]propyl}-1H-pyrazol-4-yl)[1,2,4]triazolo[1,5-ca]pyridine-5-carboxamide (stereoisomers 2, eutomer).
Animals were euthanized in accordance with American Veterinary Medical Association guidelines and cochleae were collected. All cochleae from each group were combined in the same dissection maintenance bath and plated as a group.
At the end of the culture period, the cochlear explants were bathed with 10% neutral buffered formalin (NBF) and processed for hair cell counting. Digital images of the cultures were collected before fixation.
Following fixation, all cochlear explants underwent immunofluorescent staining with anti-Myosin VIIa to specifically label the hair cells. The explants were mounted on microscope slides, then imaged utilizing a confocal microscope: 20× for full scan and with 63× oil, zoom 2.25, 4 zones along the length of the cochlea: one from 50-200 μm for each extremity, one in the 33% tile and one in the 66% tile. Detailed scanning was performed using 488 nm and 594 nm filters.
A blind counting of all hair cells (OHC & IHC undiscriminated) was performed on 4 to 6 zones of each explant (fragments 1, 2, 3, 4, 5 and 6) through the entire z stack generated. Counting and fragment length measure was performed by 3 different individuals. Only cells without nucleus aberration, with good staining, integrity, and well delimited cell outline were considered for counting. Cell density was determined by reporting each counting to the length of the fragment. Image analysis was performed using Fiji image analysis platform, a distribution of ImageJ.

The test system of a further data set is HC survival and hearing. The conditions noted are these: literature (Ylikoski 2002; Pirvola 2000); cited from earlier work.

Consider gentamycin, for which the “number of viable hair cells” value in data set [1] (gentamycin 50 μM alone, single 16 h) is listed as 0-14 hair cells/fragment.
Regarding `CC[C@H](C)NC(=O)c1cc(-c2cnn(C(c3ccc(C(F)(F)F)nc3)C(C)C)c2)cc2nc(N)nn12` (stereo partly drawn) [ORI-069, 2-Amino-N-[(2S)-butan-2-yl]-7-(1-{2-methyl-1-[6-(trifluoromethyl)pyridin-3-yl]propyl}-1H-pyrazol-4-yl)[1,2,4]triazolo[1,5-ca]pyridine-5-carboxamide], the “number of hair cells compared to gentamycin treated explants” value in data set [1] (5 μM test article + gentamycin 50 μM) was “higher compared to gentamycin treated explants”. Also, the “number of viable hair cells” value in data set [1] (gentamycin 50 μM (16 h) treated explants co-administered with 0.5 μM test article, 3 days) was 0-20 hair cells/fragment; in data set [1] (gentamycin 50 μM (16 h) treated explants co-administered with 5 μM test article, 3 days), 0-32 hair cells/fragment. Further, the “protection of explant cultures (3-D Z-stack reconstructions, FIG. 2)” value in data set [1] (gentamycin 50 μM treated explants, concentration not given) is listed as “protected explant cultures”.
As for `CCSCc1ccc2c(c1)c1c3c(c4c5cc(CSCC)ccc5n5c4c1n2[C@H]1C[C@](O)(C(=O)OC)[C@]5(C)O1)CNC3=O` [CEP-1347], in data set [1] (0.5 μM test article + gentamycin 50 μM), the “level of hair cells compared to gentamycin treated explants” value was “same low level of hair cells as the gentamycin treated explants”. The protective effect entry in data set [1] (positive control, 0.5 μM + gentamycin 50 μM) is on record as “did not show a protective effect”. In addition, the “HC survival and hearing in multiple animal models” value with HC survival and hearing is “increase HC survival and preserve hearing”.

The values above are taken from US20250041451A1, “GENE THERAPY FOR HEARING LOSS” (Perceive Biotherapeutics, Inc., priority 2021, published 2025).
